Assay [1] addresses T1, recombinant human LTA4 hydrolase (rhLTA4H) (Homo sapiens, UniProt P09960).
T1 construct: made in house; host or cells: Spodoptera frugiperda (Sf-9) cells, baculovirus (pFastBac1)
T1 sequence (P09960 1-611): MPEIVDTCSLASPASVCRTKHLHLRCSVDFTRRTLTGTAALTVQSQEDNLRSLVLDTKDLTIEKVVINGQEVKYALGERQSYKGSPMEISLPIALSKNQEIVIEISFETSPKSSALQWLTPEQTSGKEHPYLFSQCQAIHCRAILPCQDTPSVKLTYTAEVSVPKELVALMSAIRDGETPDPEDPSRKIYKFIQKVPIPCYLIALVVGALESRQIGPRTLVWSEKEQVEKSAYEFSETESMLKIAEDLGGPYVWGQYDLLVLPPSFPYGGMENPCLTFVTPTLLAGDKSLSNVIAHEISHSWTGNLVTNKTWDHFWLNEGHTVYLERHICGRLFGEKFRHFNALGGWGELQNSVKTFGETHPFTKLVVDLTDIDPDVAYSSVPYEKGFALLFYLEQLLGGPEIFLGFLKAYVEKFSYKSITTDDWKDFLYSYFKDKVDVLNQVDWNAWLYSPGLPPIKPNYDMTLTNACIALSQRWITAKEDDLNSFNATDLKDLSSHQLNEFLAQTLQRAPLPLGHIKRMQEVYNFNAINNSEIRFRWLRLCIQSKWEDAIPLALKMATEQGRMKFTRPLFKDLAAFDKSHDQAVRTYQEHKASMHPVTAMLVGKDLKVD
Briefly: Recombinant human LTA4 hydrolase assay for LTA4 hydrolase inhibitor activity. The class given is biochemical. The method, boiled down: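 Sf-9-expressed rhLTA4H (36 ng) preincubated 10 min at rt with compound in 0.1 M potassium phosphate pH 7.4, 5 mg/mL fatty-acid-free BSA; 9 ng LTA4 free acid added, 10 min at rt in 225 μL. LTB4 measured by enzyme immunoassay; IC50 from 4-parameter fit, mean of one to three determinations.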

The subject of assay [2] is LTB4 production by calcium ionophore-stimulated murine blood. Briefly: LTB4 production by calcium ionophore-stimulated murine blood for LTA4H inhibitor activity. The settings on record: diluted CD-1 mouse whole blood, calcium ionophore A23187, LTB4 by enzyme-linked immunoassay. The class given is cell-based, CD-1 mice. As to the method: LTB4 Production by Calcium Ionophore-Stimulated Murine Blood for LTA4H Inhibitor Activity
CD-1 mice were sacrificed, and blood was collected in heparin-containing syringes by cardiac puncture. The blood was diluted 1:15 with RPMI-1640 medium, and 200-μL aliquots of the diluted blood were added to wells of a 96-well microtiter plate. LTA4H inhibitor test compounds were prepared at different concentrations in RPMI-1640 medium containing […], and 20 μL of each test solution was added to a well containing diluted whole blood (final DMSO concentration of 0.1%). After the microtiter plate contents were incubated for 15 min at 37° C. in a humidified incubator, calcium ionophore A23187 (Sigma Chemical Co., St. Louis, Mo.) was added to each sample well (final concentration=20 ng/mL). The incubation was continued under the same conditions for an additional 10 min to allow LTB4 formation. The reaction was terminated by centrifugation (833×g, 10 min at 4° C.), and supernatants were analyzed for LTB4 by a commercially available enzyme-linked immunoassay (Cayman Chemical Co.) according to the manufacturer's instructions. Positive controls, under essentially identical conditions but without addition of an inhibitor compound, and negative unstimulated controls, containing all assay components except calcium ionophore, were routinely run in each experiment. IC50 values were determined by fitting the activity data at different compound concentrations to a 4-parameter equation using the Grafit program (Erithacus software).

Assay [3] deals with neutrophil influx (myeloperoxidase, MPO). Description: Murine arachidonic acid-induced inflammation model: neutrophil influx in ear (myeloperoxidase activity). The settings on record: Mus musculus, read-out: % Inh. MPO. The class given is in vivo, female Balb/c mice. As to the method:
(§1) Murine Arachidonic Acid-Induced Inflammation Model
(§2) LTA4H inhibitor compounds of the present invention were dissolved in 20% cyclodextran/H2O at a concentration of 3 mg/mL. The solutions were administered by oral gavage to female Balb/c mice weighing approximately 20 grams each (0.2 mL per mouse, 30 mg of LTA4H inhibitor compound per kg). Sixty minutes after being administered an LTA4 inhibitor, each mouse received topical application of 20 μL of arachidonic acid (100 mg/mL in acetone) to the left ear and 20 μL of acetone only to the right ear. After 3 h, the mice were sacrificed, blood was withdrawn in heparinized syringes, and 8 mm ear biopsies were taken. Ear biopsies were weighed to determine edema and then frozen at −80° C. until needed for determination of neutrophil influx.
Neutrophil influx was quantified by measuring the activity of myeloperoxidase (MPO), a neutrophil-specific enzyme. The ear biopsies were homogenized in 0.5 mL extraction buffer (0.3 M sucrose, 0.22% (w/v) hexadecyl trimethyl ammonium bromide (CTAB), and 2.5 mM citrate prepared from 0.5 M citrate stock solution (pH 5.0)). Debris was removed by centrifugation at 14000×g for 10 min. Aliquots of 10 μL of the resulting supernatant were added to wells of a microtiter plate, along with 90-μL aliquots of dilution buffer (10 mM citrate, 0.22% CTAB), followed by addition of 20 μL TMB liquid substrate system (Sigma Chemical Co.) to each sample well. The microtiter plate contents were held at rt for 1 h. The reaction was stopped by addition of 100 μL 1 M H2SO4 to each sample well, and the myeloperoxidase activity in each sample was determined from the absorbance at 405 nm. The background value from the right ear, treated only with acetone, was subtracted from that for the left ear, treated with arachidonic acid in acetone, for each animal. The percent inhibition of neutrophil influx (% lnh. MPO) by compounds of the invention was determined by comparison to animals treated identically, except that the solution administered by oral gavage was devoid of inhibitor compound.

The test system of assay [4] is ex vivo stimulated LTB4 production. Description: Murine arachidonic acid-induced inflammation model: ex vivo stimulated LTB4 production in blood. To be noted: Mus musculus; 30 mg/kg oral gavage, female Balb/c mice; blood taken 3 h after arachidonic acid, stimulated ex vivo with A23187; read-out: % Inh. LTB4. As for the experimental part:
as §1, §2
One hundred-microliter aliquots of heparinized blood were added to wells of a microtiter plate, along with equal volumes of RPMI-1640 medium, and calcium ionophore A23187 was added to each sample well (final concentration=[…]). The microtiter plate contents were incubated for 10 min at 37° C. in a humidified incubator. The reaction was terminated by centrifugation (833×g, 10 min at 4° C.). Supernatants were analyzed for LTB4 by a commercially available enzyme-linked immunoassay (Cayman Chemical Co.) in accordance with the manufacturer's instructions. The percent inhibition of ex vivo stimulated LTB4 production (% Inh. LTB4) was determined by comparison to animals treated identically except that the solution admininstered by oral gavage was devoid of inhibitor compound.

Setting [5] is: recombinant human LTA4H, LTB4 quantified by enzyme-linked immunoassay, average of one to three determinations, read-out: IC50.
Where [6] appears, read: 30 mg/kg oral gavage 60 min before topical arachidonic acid to ear, female Balb/c mice, ear biopsies after 3 h.

Structures are written as SMILES. Structures can show the parent of a compound that is named as a salt. Where two headings read alike, the source gives them in different places.

What is called IC50 is the concentration at which inhibition is half-maximal. In the case of `O=C(Nc1ccsc1)Oc1ccc(OCCN2CCCCC2)cc1` [Example 64, Thiophen-3-yl-carbamic acid 4-(2-piperidin-1-yl-ethoxy)-phenyl ester], the half-maximal inhibitory concentration (IC50) in assay [1] (setting [5]) was found to be 3 nM; in assay [2], 48 nM.
The matching figures for `CS(=O)(=O)NC1CCN(Cc2ccc(OCCc3ccccc3)cc2)CC1` [Example 93, N-[1-(4-Phenethyloxy-benzyl)-piperidin-4-yl]methanesulfonamide]: 18 nM and 16 nM.
Take `O=C(Nc1ccccc1)Oc1ccc(OCCN2CCCCC2)cc1` [Example 15, Phenyl-carbamic acid 4-(2-piperidin-1-yl-ethoxy)-phenyl ester]: the inhibition in vivo at 30 mg/kg in assay [3] (po, 3 h) amounted to 92%. For the same compound, in assay [1] (setting [5]), the IC50 turned out to be 13 nM. The inhibition at 30 mg/kg in assay [4] is 78%.
The corresponding values for `O=C(Nc1ccccc1)Oc1ccc(OCCN2CCC(O)(c3ccccc3)CC2)cc1` [Example 47, Phenyl-carbamic acid 4-[2-(4-hydroxy-4-phenyl-piperidin-1-yl)-ethoxy]-phenyl ester] are 95%, 1 nM and 80%.
For `O=C(COc1ccc(OCCN2CCCCC2)cc1)c1ccccc1` [Example 24, 1-Phenyl-2-[4-(2-piperidin-1-yl-ethoxy)-phenoxy]-ethanone], the IC50 in assay [1] (setting [5]) worked out at 58 nM; in assay [2], 202 nM.
The corresponding values for `CC(=O)NC1CCN(Cc2ccc(OCCc3ccccc3)cc2)CC1` [Example 113, N-[1-(4-Phenethyloxy-benzyl)-piperidin-4-yl]-acetamide] are 13 nM and 56 nM.
The corresponding values for `O=C(Cc1ccc(OCCN2CCC(O)(c3ccccc3)CC2)cc1)Nc1ccccc1O` [Example 13, N-(2—hydroxy-phenyl)-2-{4-[2-(4-hydroxy-4-phenyl-piperidin-1-yl)-ethoxy]-phenyl}-acetamide] are 10 nM and 47 nM.
Turning to `CS(=O)(=O)NC1CCN(Cc2ccc(OCCCc3ccccc3)cc2)CC1` [Example 119, N-{1-[4-(3-Phenyl-propoxy)-benzyl]-piperidin-4-yl}-methanesulfonamide], the values for the IC50 in assay [1] (setting [5]) and in assay [2] were 19 nM and 93 nM, respectively.
The matching figures for `O=C(Nc1ccccc1)Oc1ccc(OCCN2CCC(CO)CC2)cc1` [Example 51, Phenyl-carbamic acid 4-[2-(4-hydroxymethyl-piperidin-1-yl)-ethoxy]-phenyl ester]: 4 nM and 12 nM.
Turning to `CCCCN(CCCC)CCCc1ccc(OC(=O)Nc2ccccc2)cc1` [Example 12, Phenyl-carbamic acid 4-(3-dibutylamino-propyl)-phenyl ester hydrochloride], the IC50 in assay [1] was 3 nM; in assay [2], 88 nM.
For the compound `O=C(O)CCN(CCc1ccc(OCCc2ccccc2)cc1)C1CCCCC1` [Example 89, 3-{Cyclohexyl-[2-(4-phenethyloxy-phenyl)-ethyl]-amino}-propionic acid], in assay [3] (setting [6]), the inhibition in vivo at 30 mg/kg was 41%. In addition, in assay [1] (setting [5]), the IC50 is 7 nM. In assay [4], the inhibition at 30 mg/kg is 36%.
The matching figures for `O=C(O)CCN(CCc1ccc(OCCc2ccccc2)cc1)C1CC1` [Example 35, 3-{Cyclopropyl-[2-(4-phenethyloxy-phenyl)-ethyl]-amino}-propionic acid trifluoroacetic acid salt]: 92%, 0.5 nM and 84%.
Regarding `NC(=O)C1CCN(CCc2ccc(OCCc3ccccc3)cc2)CC1` [Example 79, 1-[2-(4-Phenethyloxy-phenyl)-ethyl]-piperidine-4-carboxylic acid amide], the IC50 in assay [1] (setting [5]) was 50 nM; in assay [2], 192 nM.
The corresponding values for `O=C1CCCN1C1CCN(Cc2ccc(OCCCc3ccccc3)cc2)CC1` [Example 107, 1-{1-[4-(3-Phenyl-propoxy)-benzyl]-piperidin-4-yl}-pyrrolidin-2-one] are 5 nM and 33 nM.
Take `c1ccc2c(c1)CC(Oc1ccc(OCCN3CCCCC3)cc1)C2` [Example 69, 1-{2-[4-(Indan-2-yloxy)-phenoxy]-ethyl}-piperidine]: the IC50 in assay [1] (setting [5]) was found to be 20 nM; in assay [2], 215 nM.
In the case of `c1ccc(CCOc2ccc(OCCN3CCCCC3)cc2)cc1` [Example 67, 1-[2-(4-Phenethyloxy-phenoxy)-ethyl]-piperidine], the IC50 in assay [1] (setting [5]) turned out to be 23 nM; in assay [2], 175 nM.
The corresponding values for `c1ccc(CCOc2ccc(CCN3CCC(c4nnn[nH]4)CC3)cc2)cc1` [Example 30, 1-[2-(4-Phenethyloxy-phenyl)-ethyl]-4-(1H-tetrazol-5-yl)-piperidine] are 27 nM and 169 nM.
The matching figures for `O=C(Nc1cccc(O)c1)Oc1ccc(OCCN2CCC(O)(c3ccccc3)CC2)cc1` [Example 11, (3-hydroxy-phenyl)-carbamic acid 4-[2-(4-hydroxy-4-phenyl-piperidin-1-yl)-ethoxy]-phenyl ester]: 0.3 nM and 12 nM.
For `CC(=O)NC1CCN(Cc2ccc(OCCCc3ccccc3)cc2)CC1` [Example 120, N-{1-[4-(3-Phenyl-propoxy)-benzyl]-piperidin-4-yl}-acetamide], the IC50 turned out to be 25 nM in assay [1] (setting [5]) and 126 nM in assay [2].
The matching figures for `c1ccc(CCOc2ccc(CN3CCC(c4nnn[nH]4)CC3)cc2)cc1` [Example 104, 1-(4-Phenethyloxy-benzyl)-4-(1H-tetrazol-5-yl)-piperidine]: 61 nM and 284 nM.

The values above are taken from patent US20060223792A1, “Phenyl and pyridyl LTA4H modulators” (priority 2005, published 2006).
